This test concerns the target T1, human B1 (Homo sapiens, UniProt P46663).
T1 construct: host or cells: CHO-K1
T1 sequence (P46663 1-353): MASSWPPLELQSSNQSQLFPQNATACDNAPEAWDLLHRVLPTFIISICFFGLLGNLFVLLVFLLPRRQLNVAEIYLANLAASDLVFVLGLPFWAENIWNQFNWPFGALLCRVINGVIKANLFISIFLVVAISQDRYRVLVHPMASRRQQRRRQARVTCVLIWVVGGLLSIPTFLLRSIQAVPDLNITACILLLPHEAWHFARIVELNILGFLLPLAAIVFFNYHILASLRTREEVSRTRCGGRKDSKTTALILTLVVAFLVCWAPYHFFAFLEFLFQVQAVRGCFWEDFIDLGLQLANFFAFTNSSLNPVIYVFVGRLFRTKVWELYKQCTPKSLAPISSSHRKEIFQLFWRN
Briefly: Calcium flux assay for Bradykinin B1 antagonist, CHO-K1 cell line expressing human B1. It is filed as cell-based. As to conditions: CHO-K1 cells expressing human B1, agonist Lys-(Des-Arg)-Bradykinin, read-out: Potency (IC50 value against human B1). The essentials:
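CHO-K1 cells expressing human B1, loaded with 5 μM Fluo-4AM (2 h, 37° C) in HEPES buffer pH 7.4 with probenecid and 0.1% BSA, were preincubated 30 min at 25° C with compound (8 concentrations, triplicate, 1% DMSO) before B1 agonist addition. Ca2+ fluorescence monitored at 538 nm; background-normalized integrated values plotted against log antagonist concentration.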
(Calcium assays in cells follow changes in intracellular calcium, usually with a dye or a luminescent sensor.)

Broadly, the IC50 is the concentration at which inhibition is half-maximal.

Structures are written as SMILES. Some results are limits rather than exact numbers.

As for `COc1cc(C)c(S(=O)(=O)N(Cc2nnc(C(=O)N3CCC(CCN4CCCC4)CC3)s2)C2CC2)c(C)c1` [Ex 337, N-Cyclopropyl-4-methoxy-2,6-dimethyl-N-[(5-{[4-(2-pyrrolidin-1-ylethyl)piperidin-1-yl]carbonyl}-1,3,4-thiadiazol-2-yl)methyl]benzenesulfonamide], the IC50 is under 0.01 µM.

Take `COc1cc(C)c(S(=O)(=O)N(C)Cc2nnc(C(=O)N3CCN(CC4CCN(C)CC4)CC3)[nH]2)c(C)c1` [Ex 338, 4-Methoxy-N,2,6-trimethyl-N-{[5-({4-[(1-methylpiperidin-4-yl)methyl]piperazin-1-yl}carbonyl)-4H-1,2,4-triazol-3-yl]methyl}benzenesulfonamide]: the IC50 lay in the range of 0.1 to 1 µM.

Values taken from US8623859B2, “Bradykinin B1 antagonists” (Evotec AG, priority 2008, dated 2014).
